Experimental data as given in ChEMBL document CHEMBL5393447, “Selective foxo inhibitors for treatment of diabetes and other disorders related to impaired pancreatic function” (2022).

Columns and labels:
[1] = target: Forkhead box protein O1 (Homo sapiens) (UniProt Q12778); settings: HEK293, dose 1-50000 nM
Description: Inhibition of human FOXO1 expressed in HEK293 cells at 1 nM to 50 uM by Dual-Glo luciferase assay relative to control

[2] = Metabolic stability in human hepatocytes assessed as compound remaining at 0.3 uM measured upto 90 mins by LC-MS/MS analysis; format: ADME, cell-based, Hepatocyte; settings: read-out: Stability

Sequence of Forkhead box protein O1 (Homo sapiens) (Q12778 whole entry): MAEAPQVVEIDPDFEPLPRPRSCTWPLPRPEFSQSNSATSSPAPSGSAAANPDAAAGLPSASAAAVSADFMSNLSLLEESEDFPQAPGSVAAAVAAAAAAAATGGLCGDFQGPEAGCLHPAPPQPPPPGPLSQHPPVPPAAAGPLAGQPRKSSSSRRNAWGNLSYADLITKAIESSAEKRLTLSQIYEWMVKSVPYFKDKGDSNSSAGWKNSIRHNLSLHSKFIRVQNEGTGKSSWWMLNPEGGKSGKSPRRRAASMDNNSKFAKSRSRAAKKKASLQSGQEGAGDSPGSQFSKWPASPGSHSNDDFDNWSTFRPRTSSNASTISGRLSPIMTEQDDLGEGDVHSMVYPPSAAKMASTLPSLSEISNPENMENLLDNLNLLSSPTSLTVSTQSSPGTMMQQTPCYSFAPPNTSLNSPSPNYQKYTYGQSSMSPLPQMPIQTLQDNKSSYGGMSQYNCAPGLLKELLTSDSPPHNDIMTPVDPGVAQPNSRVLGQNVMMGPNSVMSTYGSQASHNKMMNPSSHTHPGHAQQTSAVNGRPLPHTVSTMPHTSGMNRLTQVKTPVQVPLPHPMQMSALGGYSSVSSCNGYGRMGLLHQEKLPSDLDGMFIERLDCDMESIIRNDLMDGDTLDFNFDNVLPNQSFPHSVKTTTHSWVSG

Structure (SMILES)	inhibition [1]	remaining at 1.5 h, 0.3 µM [2]
Nc1cc(-c2nc3ccccc3[nH]2)n[nH]1	< 40%	
CN1CCC(c2ccc(C(=O)Nc3cc(-c4nc5ccccc5[nH]4)n[nH]3)cc2)CC1	> 40%	
CC(=O)Nc1cc(-c2nc3ccccc3[nH]2)n[nH]1	< 40%	
COc1ccc(C(=O)Nc2cc(-c3nc4cc(OC(F)(F)F)ccc4[nH]3)[nH]n2)cc1Cl	> 40%	
COc1ccc(C(=O)Nc2cc(-c3nc4c(C(F)(F)F)cccc4[nH]3)[nH]n2)cc1Cl	> 40%	
O=C(Nc1cc(-c2nc3ccccc3[nH]2)n[nH]1)c1ccc(N2CCNCC2)cc1		110%
CN1CCN(c2ccc(C(=O)Nc3cc(-c4nc5ccccc5[nH]4)n[nH]3)cc2)CC1	> 40%	
CC(=O)N1CCN(c2ccc(C(=O)Nc3cc(-c4nc5ccccc5[nH]4)n[nH]3)cc2)CC1	> 40%	
COc1ccc(C(=O)Nc2cc(-c3nc4cc(C(F)(F)F)ccc4[nH]3)[nH]n2)cc1Cl	> 40%	
